Values quoted from earlier work, collected in patent US12697345B2, “Microparticles containing stabilized CBD oil, and methods for the production thereof” (priority 2021, dated 2026).

What was measured:
[1] = 600 mg oral CBD, healthy male volunteers
[2] = estimated
[3] = aerosolized

C=C(C)[C@@H]1CCC(C)=CC1c1c(O)cc(CCCCC)cc1O (stereo partly drawn) [CBD, 2-[(6R)-3-methyl-6-prop-1-en-2-ylcyclohex-2-en-1-yl]-5-pentylbenzene-1,3-diol]
mean±SD whole blood level of CBD at 1 hour ([1]; 1 h): 0.36 (0.64) ng/mL | mean±SD whole blood level of CBD at 2 hours ([1]; 2 h): 1.62 (2.98) ng/mL | mean±SD whole blood level of CBD at 3 hours ([1]; 3 h): 3.4 (6.42) ng/mL | Bioavailability from oral delivery [2]: 6% | Time to peak plasma concentrations [3]: 5 to 10 min
